Earlier results, collected in US9662359B2, “Compositions and methods for treating depression” (Alexander Vuckovic, M.D., LLC, priority 2010, dated 2017).

Conditions: oral SAMe

## S-Adenosyl methionine [SAMe]
  half-life: about 100 minutes
